Assay results as given in PMC8694318, “Discovery of pyrano[2,3-d]pyrimidine-2,4-dione derivatives as novel PARP-1 inhibitors: design, synthesis and antitumor activity” (RSC Advances, 2021).
Read-outs that look alike come from different tables or passages of the source.

Assays:
[1] = molecular target: T1, PARP-1 (Homo sapiens, UniProt P09874); experiment: In vitro PARP-1 inhibitory assay (colorimetric 96-well kit, BPS Bioscience); type: biochemical
T1 construct: purchased BPS Bioscience 80580
Experimental: Briefly, the histone mixture was diluted 1 : 5 with 1× PBS, 50 μl of histone solution was added to each well and incubated at 4 °C overnight. The plate was washed three times using 200 μl PBST buffer (1× PBS containing 0.05% Tween-20) per well. Liquid was removed from the wells by tapping the strip wells on clean paper towels. To each well, 200 μl of blocking buffer was added, followed by 60–90 min incubation at room temperature. Then 25 μl of PARP master mixture (consisting of 2.5 μl 10× PARP buffer + 2.5 μl 10× PARP assay mixture + 5 μl activated DNA + 15 μl distilled water) was added to each well. Olaparib was used as a positive control. 5 μl of inhibitor solution of each well labeled as “test inhibitor” was added. For the “positive control” and “blank”, 5 μl of the same solution without inhibitor was added. 1× PARP buffer was prepared by adding 1 part of 10× PARP buffer to 9 parts H2O (v/v), 20 μl of 1× PARP buffer was added to the wells designated as “blank”. The amount of PARP-1 required for the assay was then calculated. The reaction was initiated by adding 20 μl of diluted PARP1 enzyme to the wells designated “positive control” and “test inhibitor control”. The strip wells were incubated at room temperature for 1 hour. The strip wells were then washed three times with 200 μl PBST buffer. Then, 50 μl of 50 times diluted Streptavidin-HRP with blocking buffer was added to each well, and the strips were further incubated at room temperature for 30 min. After washing the wells three times with 200 μl PBST buffer, HRP colorimetric substrate was added to each well and the plate was incubated at the room temperature until a blue color is developed in the positive control well. Then reaction was quenched with […] per well of 2 M sulfuric acid, and absorbance at 450 nm was determined. Carrier solvents were assayed as negative controls. All assays were performed in triplicate. To determine the IC50 value for each inhibitor, the average absorbance of each inhibitor concentration was plotted against the log of the concentration of each respective inhibitor and the IC50 value for each plot was obtained using computer-assisted non-linear regression analyses. Data presented are the results of at least two independent experiments done in triplicate. The results of these studies are presented as mean IC50 (nM).[24]

[2] = test system: MCF-7 cells; experiment: Cell proliferation inhibition (MTT) assay, MCF-7; type: cell-based; conditions: Homo sapiens, MCF7, 96 h incubation
Experimental: (§1) We used the MTT [3-(4,5-dimethylthiazol-2-yl)-2,5-diphenyltetrazoliumbromide] (Biomatik, Wilmington, DE) assay to measure cell growth inhibition, which is based on the conversion of MTT to formazan crystals by mitochondrial dehydrogenases.[25] Only in live cells, mitochondrial enzymes can transform MTT into insoluble formazan. After incubated with serially diluted inhibitors for 96 h, cell cultures were incubated with MTT solution (5 mg ml^−1) for 4 h at 37 °C. Then discard the medium and DMSO was added to solubilize the reaction product formazan by shaking for 10 min. Absorbance at 492 nm was measured with a microplate reader (Thermo, MK3). Cell viability was expressed as an IC50 value.

[3] = test system: HCT116 cells; experiment: Cell proliferation inhibition (MTT) assay, HCT116; type: cell-based; conditions: Homo sapiens, HCT-116, 96 h incubation
Experimental: as §1

[4] = colorimetric assay, mean of at least two independent experiments in triplicate, read-out: IC50 against PARP-1 (converted)

T1 sequence (P09874 whole entry): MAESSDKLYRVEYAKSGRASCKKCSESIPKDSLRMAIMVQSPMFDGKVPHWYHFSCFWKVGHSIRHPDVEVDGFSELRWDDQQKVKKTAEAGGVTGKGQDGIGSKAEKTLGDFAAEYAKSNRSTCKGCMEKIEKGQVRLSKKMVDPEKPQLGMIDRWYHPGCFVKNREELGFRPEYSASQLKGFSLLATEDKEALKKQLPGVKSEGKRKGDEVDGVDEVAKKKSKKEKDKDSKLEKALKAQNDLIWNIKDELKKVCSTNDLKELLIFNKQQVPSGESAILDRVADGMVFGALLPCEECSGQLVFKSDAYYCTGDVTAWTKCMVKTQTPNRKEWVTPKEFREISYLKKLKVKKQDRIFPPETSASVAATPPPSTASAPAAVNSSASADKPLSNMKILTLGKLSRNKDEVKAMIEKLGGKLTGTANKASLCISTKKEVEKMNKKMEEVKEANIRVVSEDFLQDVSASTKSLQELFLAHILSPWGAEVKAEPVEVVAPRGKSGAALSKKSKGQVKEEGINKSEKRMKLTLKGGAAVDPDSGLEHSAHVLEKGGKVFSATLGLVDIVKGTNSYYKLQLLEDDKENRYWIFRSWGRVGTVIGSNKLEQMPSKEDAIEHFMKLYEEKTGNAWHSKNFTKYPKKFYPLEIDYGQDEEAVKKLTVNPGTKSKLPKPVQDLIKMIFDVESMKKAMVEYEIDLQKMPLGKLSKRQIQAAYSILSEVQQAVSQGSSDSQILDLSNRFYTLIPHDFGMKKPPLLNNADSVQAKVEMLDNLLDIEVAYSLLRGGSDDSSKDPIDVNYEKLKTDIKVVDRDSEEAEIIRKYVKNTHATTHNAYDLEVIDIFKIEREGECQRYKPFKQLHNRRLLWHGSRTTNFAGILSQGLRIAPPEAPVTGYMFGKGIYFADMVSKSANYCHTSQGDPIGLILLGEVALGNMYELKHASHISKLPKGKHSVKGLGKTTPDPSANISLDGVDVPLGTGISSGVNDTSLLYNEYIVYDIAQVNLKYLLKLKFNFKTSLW

Nc1ncnc2c1Oc1[nH]c(=O)[nH]c(=O)c1C2c1cccs1 (centres unmarked) [Compound S4, 4-amino-10-(thiophen-2-yl)-6,10-dihydro-7H-pyrano[2,3-d:5,6-d']dipyrimidine-7,9(8H)-dione]
IC50 [1, 4]: 14.9 ± 1.03 nM
IC50 ([1]; read-out: IC50 against PARP-1 (converted)): 15.1 nM
IC50 [2]: 870 ± 70 nM
IC50 [3]: 6380 ± 110 nM

CCO/C=N/C1=C(C#N)C(c2cccs2)c2c([nH]c(=O)[nH]c2=O)O1 (centres unmarked) [Compound S9, (E)-ethyl N-(6-cyano-2,4-dioxo-5-(thiophen-2-yl)-2,3,4,5-tetrahydro-1H-pyrano[2,3-d]pyrimidin-7-yl)formimidate]
IC50 [1, 4]: 48.5 ± 3.25 nM
IC50 [2]: 8770 ± 150 nM
IC50 [3]: 2900 ± 40 nM

O=c1[nH]c2c(c(=O)[nH]1)C(c1cccs1)c1[nH]c(=S)[nH]c(=S)c1O2 (centres unmarked) [Compound S5, 10-(thiophen-2-yl)-2,4-dithioxo-1,2,3,4,6,10-hexahydro-7H-pyrano[2,3-d:5,6-d']dipyrimidine-7,9(8H)-dione]
IC50 [1, 4]: 11.1 ± 0.76 nM
IC50 [2]: 4950 ± 70 nM
IC50 [3]: 7410 ± 180 nM

CN[C@@H]1C[C@H]2O[C@@](C)([C@@H]1OC)n1c3ccccc3c3c4c(c5c6ccccc6n2c5c31)C(=O)NC4 [Staurosporine, reference compound]
IC50 [3]: 6940 ± 210 nM

NC1=CC(c2ccc([N+](=O)[O-])cc2)=NC2Oc3[nH]c(=O)[nH]c(=O)c3C(c3cccs3)C12 (centres unmarked) [Compound S8, 6-amino-8-(4-nitrophenyl)-5-(thiophen-2-yl)-1,5,5a,9a-tetrahydro-2H-pyrido[3′,2':5,6]pyrano[2,3-d]pyrimidine-2,4(3H)-dione]
IC50 [1, 4]: 15.8 ± 0.86 nM
IC50 [2]: 660 ± 50 nM
IC50 [3]: 2760 ± 60 nM

Cc1nc(O)c2c(n1)Oc1[nH]c(=O)[nH]c(=O)c1C2c1cccs1 (centres unmarked) [Compound S10, 6-hydroxy-8-methyl-5-(thiophen-2-yl)-1,5-dihydro-2H-pyrano[2,3-d:6,5-d']dipyrimidine-2,4(3H)-dione]
IC50 [1, 4]: 16.2 ± 0.88 nM
IC50 [2]: 4480 ± 430 nM
IC50 [3]: 12100 ± 640 nM

N#CC1=C(N)Oc2[nH]c(=O)[nH]c(=O)c2C1c1cccs1 (centres unmarked) [Compound S1, 7-amino-2,4-dioxo-5-(thiophen-2-yl)-2,3,4,5-tetrahydro-1H-pyrano[2,3-d]pyrimidine-6-carbonitrile]
IC50 [1, 4]: 49.1 ± 2.32 nM
IC50 [2]: 12680 ± 120 nM
IC50 [3]: 24100 ± 1140 nM

CONC1=C(C#N)Oc2[nH]c(=O)[nH]c(=O)c2C1c1cccs1 (centres unmarked) [Compound S6, 6-(methoxyamino)-2,4-dioxo-5-(thiophen-2-yl)-2,3,4,5-tetrahydro-1H-pyrano[2,3-d]pyrimidine-7-carbonitrile]
IC50 [1, 4]: 115 ± 7.22 nM
IC50 [2]: 3120 ± 110 nM
IC50 [3]: 2850 ± 30 nM

Nc1nn(-c2cc([N+](=O)[O-])ccc2[N+](=O)[O-])c2c1Oc1[nH]c(=O)[nH]c(=O)c1C2c1cccs1 (centres unmarked) [Compound S3, 3-amino-1-(2,5-dinitrophenyl)-9-(thiophen-2-yl)-5,9-dihydropyrazolo[3′,4':5,6]pyrano[2,3-d]pyrimidine-6,8(1H,7H)-dione]
IC50 [1]: 71.4 ± 4.12 nM
IC50 [2]: 3170 ± 1040 nM
IC50 [3]: 2800 ± 70 nM

Nc1nc(S)nc2c1Oc1[nH]c(=O)[nH]c(=O)c1C2c1cccs1 (centres unmarked) [Compound S2, 4-amino-2-mercapto-10-(thiophen-2-yl)-6,10-dihydro-7H-pyrano[2,3-d:5,6-d']dipyrimidine-7,9(8H)-dione]
IC50 [1, 4]: 4.06 ± 0.18 nM
IC50 [2]: 2650 ± 50 nM
IC50 [3]: 9310 ± 340 nM

O=c1[nH]c2c(c(=O)[nH]1)C(c1cccs1)c1[nH]c(=S)n(-c3ccccc3)c(=O)c1O2 (centres unmarked) [Compound S7, 3-phenyl-10-(thiophen-2-yl)-2-thioxo-2,3,6,10-tetrahydro-1H-pyrano[2,3-d:5,6-d']dipyrimidine-4,7,9(8H)-trione]
IC50 [1, 4]: 3.61 ± 0.15 nM
IC50 [2]: 1280 ± 1120 nM
IC50 [3]: 46900 ± 1820 nM
